In one data set the target is T1, purified PSD (Homo sapiens, UniProt Q9UG56).
T1 construct: Purified recombinant protein (full length) of human phosphatidylserine decarboxylase (PSD); His tag (N); purchased Acris-OriGene; host or cells: E. coli
T1 sequence (Q9UG56 53-409): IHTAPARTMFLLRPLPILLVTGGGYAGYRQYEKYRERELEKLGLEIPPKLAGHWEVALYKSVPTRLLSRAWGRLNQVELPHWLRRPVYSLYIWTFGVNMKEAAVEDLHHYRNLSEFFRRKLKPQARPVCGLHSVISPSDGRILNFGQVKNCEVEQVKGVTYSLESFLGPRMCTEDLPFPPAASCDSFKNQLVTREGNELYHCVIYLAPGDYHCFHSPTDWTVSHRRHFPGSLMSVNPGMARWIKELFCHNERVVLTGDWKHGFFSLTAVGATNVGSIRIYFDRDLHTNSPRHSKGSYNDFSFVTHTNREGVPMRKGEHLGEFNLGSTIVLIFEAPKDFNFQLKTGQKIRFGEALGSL
Briefly: MST, labelled PSD with synthetic peptides. To be noted: labelled PSD 0.25 µM, peptide 1–10 µM, 30 min, 37 °C, n = 3, read-out: Kd, peptide binding to purified PSD.

The subject of the next data set is purified SMAC. Briefly: Glass‐bound peptide array blotted with SMAC with or without PSD. The data set is classed as binding, human. To be noted: SMAC preincubated with purified PSD, anti‐SMAC antibodies. The protocol:
Customized 768‐peptide sequences derived from 11 SMAC‐interacting proteins produced by INTAVIS Peptide Services (GmbH & Co. KG, Tübingen, Germany) were arrayed on a glass slide. Peptide arrays were blotted with SMAC, PSD or peptides interacting with PSD using anti‐SMAC or anti‐PSD antibodies. The interaction of purified SMAC or PSD with glass‐bound peptide arrays was assessed by slide washing (three times, 10 min each) with Tris‐buffered saline (150 mM NaCl, 50 mM Tris/HCl, pH 7.4), followed by overnight incubation with blocking buffer (Tris‐buffered saline containing low‐fat dry milk, 2.5%, w/v). The slides were then incubated for 4 h or overnight with purified SMAC (0.8 µM) with and without preincubation with PSD (0.3 µM). Similarly, slides were incubated with PSD (0.15 µM) with or without preincubation with the indicated peptide (20 μM) in blocking buffer at room temperature. After extensive slide washing with Tris‐buffered saline containing 0.05% Tween‐20, SMAC or PSD binding was detected using anti‐SMAC or anti‐PSD antibodies and HRP‐conjugated anti‐rabbit or anti‐mouse IgG as a secondary antibody. The blots were developed using EZ‐ECL (Biological Industries), according to the manufacturer’s instructions.
Fig. 6 PSD‐ and SMAC‐interacting partners. (A) Schematic presentation of peptide array and detection of their interaction with SMAC. (B) Glass‐bound peptide array consisting of overlapping peptides derived from 15 SMAC‐interacting proteins were incubated overnight with purified SMAC (0.8 µM) and then blotted with anti‐SMAC antibodies (1 : 1000), followed by incubation with HRP‐conjugated anti‐mouse IgG and detection using a chemiluminescence kit. Dark spots represent binding of SMAC to peptides derived from SMAC‐interacting proteins. (C) SMAC (0.3 µM) was incubated with purified PSD (0.4 µM) and blotted as in (B). The peptide spots where PSD prevented interaction with SMAC (Table S1) are circled. (D) Schematic presentation of peptide array and detection of their interaction with PSD. […]

Data set [1] can be described thus: Cell death induced by the PE probe. The data set is classed as cell-based. To be noted: data not shown.
Another data set relates to different cell lines. The conditions noted are these: ref [35], cited from earlier work. The text has this:
To target the peptide to the nucleus (nuCPP), the peptides were fused to the tetrapeptide RrRK (r = D‐arginine), shown to primarily target the nucleus of HeLa cells.

Data set [2] has as its system A549 cell xenograft. Briefly: TUNEL staining of treated tumours. The data set is classed as in vivo, athymic nude mice. The conditions noted are these: si‐hSMAC‐A‐TTs, data not shown.
The subject of the next data set is SMAC/Diablo. Briefly: SMAC expression in treated tumours (immunoblot, IHC). The data set is classed as in vivo, human. To be noted: si‐hSMAC‐A‐TTs versus si‐NT‐TTs, n = 6 mice/group. The protocol:
Cells were harvested and washed twice with ice‐cold PBS, and the pellets were lysed on ice for 30 min in a lysis buffer (50 mM Tris/HCl, pH 7.5, 150 mM NaCl, 1 mM EDTA, 1.5 mM MgCl2, 10% glycerol, 1% Triton X‐100), freshly supplemented with a protease inhibitor cocktail (Calbiochem) and centrifuged (10 min, 12 000 g ). The protein concentration of the supernatant was determined, and cells were stored at −80 °C until used for gel electrophoresis and immunoblotting. Protein samples (10–20 μg) were subjected to SDS‐PAGE and immunoblotting, using the selected primary antibodies, followed by incubation with HRP‐conjugated secondary antibodies. HRP activity was determined using EZ‐ECL (Biological Industries). Band intensity was quantified using FUSION‐FX (Vilber Lourmat, Collégien, France).
(§1) Results are presented as the mean tumour volume ± SEM. […] Results are the means ± SEM.
A general note: In western blotting, separated proteins are transferred to a membrane and probed.

The test system of a further data set is phospholipid levels. Briefly: Total PL, PC and PE levels in treated tumours. To be noted: si‐hSMAC‐A‐TTs relative to si‐NT‐TTs, n = 6 mice per group. The data set is classed as in vivo. The protocol:
Total lipids were extracted from the SMAC‐KO and wild‐type A549/HEK 293T cells by the Folch method. Briefly, a cell suspension (2 × 10^7 cells/mL) was made in CHCl3/MeOH (2 : 1, v/v) sonicated for 30 s. Water (116 μL·mL^−1) was added to the suspension and shaken for 2 h at room temperature at 300 r.p.m. The aqueous suspension was heated for 10 min at 60 °C and stored at 4 °C for 3 h. Undissolved material was filtered through a 0.45‐μm syringe filter. Solvent was evaporated under nitrogen, and residues were re‐dissolved in CHCl3/MeOH for lipid analysis.
Total phospholipid content of the cells was determined calorimetrically at 488 nm based on the formation of a complex between the PLs and ammonium ferrothiocyanate. PC level was also determined by calorimetric analysis at 316 nm using ammonium thiocyanatocobaltate reagent, as described previously.
PE content in the lipid samples was measured as described previously. Briefly, solvent was evaporated from the lipid samples under nitrogen gas, and samples were resuspended in 0.8 mM Triton X‐100. Sample aliquots were added to 96‐well plates containing (50 µL) reaction mixture (80 mM NaCl, 2 mM K2HPO4, pH 7.4) and of borate buffer (12.5 µL) (100 mM boric acid, 75 mM NaCl, 25 mM sodium tetraborate, pH 9). After mixing, 12.5 µL of 100 µM DSB‐3, in 10 mM K2HPO4 (pH 7.4), was then added and incubated for 2 h in the dark with shaking (100 r.p.m.). Fluorescence was measured using excitation λex = 403 nm and emission λem = 508 nm. A calibration curve was obtained using PE (Biovision) as a standard.
as §1

The test system of data set [3] is A549 cell xenograft. Briefly: A549 lung cancer xenograft tumour growth. The conditions noted are these: relative to si‐NT‐treated tumours, nude mice, n = 8 mice/group. The data set is classed as in vivo, athymic nude mice. The protocol:
Male Hsd:Athymic ' Nude‐Foxn1nu mice (6–8 weeks old) were obtained from Envigo and were kept in the university animal facility in temperature‐controlled rooms and provided with water and food pellets ad libitum. All procedures involving mice were approved by the Ben‐Gurion Institutional Animal Care and Use Committee.
Lung cancer A549 (3 × 10 ^6 ) cells were implanted subcutaneously on the dorsal flanks. Tumour growth was recorded using digital calibre, and volumes were calculated using, volume = X^2 × Y/2, where X and Y are the short and long tumour dimensions, respectively. Mice were divided randomly into three groups once the average tumour volume reached ˜ 80 mm^3 and were treated subcutaneously with si‐NT or si‐hSMAC‐A mixed with JetPEI reagent (350 or 700 nM final concentration) three times a week. Mice were sacrificed at the end of experiment, and the tumours were excised and processed for immunohistochemistry (IHC) or frozen in liquid nitrogen for immunoblotting and RNA isolation.
as §1

In data set [4] the test system is VDAC1‐IP3R close association (MAM). Briefly: In‐situ proximity ligation assay VDAC1‐IP3R (MAM) in tumour sections. The data set is classed as in vivo. To be noted: si‐hSMAC‐A‐TTs sections relative to si‐NT‐TTs. The protocol: PLA was conducted as previously described using an in␣situ detection reagent red kit (DuoLink InSitu PLA Probe kit; Sigma‐Aldrich) according to the manufacturer’s protocol. VDAC1‐IP3R and SMAC‐PSD were analysed using PLA [24]. Briefly, for tumour section, formalin‐fixed and paraffin‐embedded tumour sections (5‐μm thick) were deparaffinized and then permeabilized using 0.3% Triton X‐100 in PBS for 30 min, followed by blocking with Duolink® Blocking Solution for 1 h. Sections were incubated overnight with anti‐VDAC1 (rabbit 1 : 750) and anti‐IP3R (mouse, 1 : 750), washed twice with TBS‐Tween (0.01%) and then incubated for 1 h with the secondary anti‐mouse and anti‐rabbit antibodies (PLA probe MINUS and PLUS) that were conjugated to complementary oligonucleotide extensions, and ligation and amplification steps were performed per manufacturer’s instructions, and Texas red‐labelled oligonucleotide probes were detected.
Fig. 3 Subcellular morphological alterations including ER‐mitochondria contact sites, as induced by reduction of SMAC levels. […] (C) and subjected to quantitative analysis (n = 5) (D). […] Images at high magnification (Ea,b) (scale bars represent 20, 5 µm as indicated) and ligation product quantification (F) are also shown.

Another data set concerns Ki‐67. The conditions noted are these: si‐hSMAC‐A‐TTs versus si‐NT‐TTs, IHC.
Data set [5] deals with T2, Purified recombinant protein (full length) of human phosphatidylserine decarboxylase (PSD) (human, UniProt Q9UG56 53-409, fluorescently labelled (in the MST with the peptides 2F3 and 1C11 only)).
T2 construct: phosphatidylserine decarboxylase, human, full length, recombinant; also called PISD; purified PSD; source: bought: Acris‐OriGene, expressed in E. coli, purified; not shown: His tag, N-terminal, kept
T2 sequence (looked up): T1 sequence (Q9UG56 53-409)
Briefly: MST; SMAC fluorescently labelled (NanoTemper BLUE kit), 1 µM, incubated with purified PSD (78–625 nM) for 30 min at 37 °C; 10 mM Tris buffer, pH 7.4; Monolith NT.115, LED 20%, IR laser 20%. The conditions noted are these: both partners purified.

The values below come from paper PMC8564633, “SMAC/Diablo controls proliferation of cancer cells by regulating phosphatidylethanolamine synthesis” (Molecular Oncology, 2021).

As a reminder, the Kd is the constant that tells how readily two partners part at equilibrium.

Non-standard residues stand in square brackets, D forms with d. No end group written: not given here. Dmt = Cc1cc(O)cc(C)c1C[C@H](N)C(=O)O; Orn = NCCC[C@H](N)C(=O)O

For ALLTSGTSDPRARVTYGTPSLWRL [1C11], the Kd at purified PSD was 3 µM.
For the molecule ALSTSSPIPSVPQSQAQPQTGSGAS [2F3], the Kd on purified PSD stood at 3 µM.
In the case of DVDKLREQLS TSENALTGRILDLKT [2J14], the “effect of PSD preincubation on SMAC binding to the peptide spot” value in the data set with purified SMAC is listed as “prevented SMAC interaction”.
For the molecule Distyrylbenzene‐bis‐aldehyde [DSB‐3], the cell death result in data set [1] is “no cell death”.
For FQQLTCVLPI LDNLLKANVINKQEH [1E14], the “effect of PSD preincubation on SMAC binding to the peptide spot” value in the data set on purified SMAC is on record as “prevented SMAC interaction”.
On the same count and under the same terms, the same measure for PNQSSRAFQGT DHSSDLAFDFLSQQ [2I8]: “prevented SMAC interaction”.
As to [dR][Dmt][Orn]F-NH2 [mtCPP‐1], the toxicity result with different cell lines (different cell lines) is “no toxicity”. The induction of apoptosis entry with different cell lines was “did not induce apoptosis”.
Turning to “si‐hSMAC‐A: Human SMAC/Diablo‐specific siRNA, sense 5′AAGCGGUGUUUCUCAGAATTGtt3′, antisense 5′AACAAUUCUGAGAAACCCG Ctt3′ (sense AAGCGGUGUUUCUCAGAATTGTT; antisense AACAAUUCUGAGAAACCCGCTT; chemistry not given here)”, the “cell death, TUNEL staining” value in the data set with A549 cell xenograft [2] is “No cell death was detected”. In the data set on SMAC/Diablo, this molecule came in with an SMAC/Diablo level decreased of 75%. Moreover, the “levels of PE increased” value with phospholipid levels (DSB‐3 probe) was found to be 200%. Further, in the data set on phospholipid levels, the “levels of PC decreased” value is 65% and the “levels of PLs decreased” value amounted to 50%. The same molecule had a tumour volume reduced in the data set with A549 cell xenograft [3] (si‐hSMAC‐A 350 nM) of 50%. Besides, the tumour volume reduced in the data set with A549 cell xenograft [3] (si‐hSMAC‐A 700 nM) was 85%. Besides, the “PLA signal VDAC1‐IP3R” value in data set [4] is recorded as “over fourfold”. Also, the “expression of Ki‐67, cell proliferation marker” value in the data set with Ki‐67 is listed as “highly reduced”.

B1: Human recombinant SMAC (SMAC/Diablo, second mitochondria‐derived activator of caspase/direct inhibitor of apoptosis‐binding protein with low pI) (natural protein)
chain: AVPIAQKSEPHSLSSEALMRRAVSLVTDSTSTFLSQTTYALIEAITEYTKAVYTLTSLYRQYTSLLGKMNSEEEDEVWQVIIGARAEMTSKHQEYLKLETTWMTAVGLSEMAAEAAYQTGADQASITARNHIQLVKLQVEEVHQLSRKAETKLAEAQIEELRQKTQEEGEERAESEQEAYLRED
modifications: fluorescently labelled with the NanoTemper Protein labelling kit BLUE (in the MST with PSD only)
In the case of B1, in [5], the Kd came to 0.246 µM.
